Drawing on patent US20070185162A1, “Substituted diketopiperazines as oxytocin receptor antagonists” (Koninklijke Philips Electronics, N.V., priority 2004, published 2007), this text covers Ki for eleven compounds.

The target of the test is T1, human Oxytocin-1 (hOT) receptor (Homo sapiens, UniProt P30559).
T1 construct: expressed in transfected cells
T1 sequence (P30559 1-389): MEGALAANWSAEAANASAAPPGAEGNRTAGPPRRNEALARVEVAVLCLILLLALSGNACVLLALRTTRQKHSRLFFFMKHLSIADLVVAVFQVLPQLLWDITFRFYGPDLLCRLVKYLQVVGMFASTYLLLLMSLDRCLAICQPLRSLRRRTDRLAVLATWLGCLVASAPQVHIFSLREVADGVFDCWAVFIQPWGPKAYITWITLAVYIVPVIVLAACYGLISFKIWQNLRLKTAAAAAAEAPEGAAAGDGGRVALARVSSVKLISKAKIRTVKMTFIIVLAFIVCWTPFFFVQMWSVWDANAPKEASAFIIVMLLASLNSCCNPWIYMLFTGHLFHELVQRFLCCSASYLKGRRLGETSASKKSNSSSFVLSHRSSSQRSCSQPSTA
Put plainly: Determination of antagonist affinity at human Oxytocin-1 receptors using FLIPR (Assay 1). The class given is cell-based. The note with it: CHO-hOT cells, [Ca2+]i response to oxytocin (EC80); mean, n>=3; read-out: hOT FLIPR fpKi mean. The procedure:
Determination of Antagonist Affinity at Human Oxytocin-1 Receptors Using FLIPR
Adherent Chinese Hamster Ovary (CHO) cells, stably expressing the recombinant human Oxytocin-1 (hOT) receptor, were maintained in culture in DMEM:F12 medium (Sigma, cat no D6421), supplemented with 10% heat inactivated foetal calf serum (Gibco/Invitrogen, cat. no. 01000-147), 2 mM L-glutamine (Gibco/Invitrogen, cat. no. 25030-024) and 0.2 mg/ml G418 (Gibco/Invitrogen, cat no. 10131-027). Cells were grown as monolayers under 95%:5% air:CO2 at 37° C. and passaged every 3-4 days using TrypLE™ Express (Gibco/Invitrogen, cat no. 12604-013).
Measurement of [Ca^2+]i Using the FLIPR™
CHO-hOT cells were seeded into black walled clear-base 384-well plates (Nunc) at a density of 10,000 cells per well in culture medium as described above and maintained overnight (95%:5% air:CO2 at 37° C.). After removal of culture medium, cells were incubated for 1 h at 37° C. in Tyrode's medium (NaCl, 145 mM; KCl, 2.5 mM; HEPES, 10 mM; Glucose, 10 mM; MgCl2, 1.2 mM; CaCl2, 1.5 mM) containing probenacid (0.7 mg/ml), the cytoplasmic calcium indicator, Fluo-4 (4 uM; Teflabs, USA) and the quenching agent Brilliant Black (250 uM; Molecular Devices, UK). Cells were then incubated for an additional 30 min at 37° C. with either buffer alone or buffer containing OT antagonist, before being placed into a FLIPR™ (Molecular Devices, UK) to monitor cell fluorescence (λex=488 nm, λEM=540 nm) before and after the addition of a submaximal concentration of oxytocin (EC80).
Functional responses using FLIPR were analysed using Activity Base Version 5.0.10. Data are reported as mean values, wherein number of times tested (n) is greater than or equal to 3.

SMILES strings stand for the structures.

As to `Cc1ccc([C@H](C(=O)N(C)C)N2C(=O)[C@@H](C3Cc4ccccc4C3)NC(=O)[C@H]2CC(C)C)cn1` [Comparator X, (2R)-2-[(3R,6R)-3-(2,3-dihydro-1H-inden-2-yl)-6-isobutyl-2,5-dioxopiperazin-1-yl]-N,N-dimethyl-2-(6-methylpyridin-3-yl)ethanamide, reference compound], the Ki fell in the range of 7.94 to 25.1 nM.
`Cc1nc([C@H](C(=O)N2CCOCC2)N2C(=O)[C@@H](C3Cc4ccccc4C3)NC(=O)[C@H]2CC(C)C)co1` [Comparator Y, (3R,6R)-3-(2,3-dihydro-1H-inden-2-yl)-1-[(1R)-1-(2-methyl-1,3-oxazol-4-yl)-2-(4-morpholinyl)-2-oxoethyl]-6-(2-methylpropyl)-2,5-piperazinedione, reference compound]: the Ki lay in the range of 31.6 to 100 nM.
As for `CCC(CC)[C@@H]1C(=O)N[C@H](C2Cc3ccccc3C2)C(=O)N1[C@@H](C(=O)NC)c1ccc(C)nc1` [Example 1, (2R)-2-[(3R,6R)-3-(2,3-Dihydro-1H-inden-2-yl)-6-(1-ethylpropyl)-2,5-dioxo-1-piperazinyl]-N-methyl-2-(6-methyl-3-pyridinyl)ethanamide], the Ki lay within 2 to 6.31 nM.
As to `CCC(CC)[C@@H]1C(=O)N[C@H](C2Cc3ccccc3C2)C(=O)N1[C@@H](C(=O)N(C)C)c1ccc(C)nc1` [Example 2, (2R)-2-[(3R,6R)-3-(2,3-Dihydro-1H-inden-2-yl)-6-(1-ethylpropyl)-2,5-dioxo-1-piperazinyl]-N,N-dimethyl-2-(6-methyl-3-pyridinyl)ethanamide], the Ki is 0.501 to 1.58 nM.
With `CCC(CC)[C@@H]1C(=O)N[C@H](C2Cc3ccccc3C2)C(=O)N1[C@@H](C(=O)NC)c1ccc(C)nc1C` [Example 3, (2R)-2-[(3R,6R)-3-(2,3-Dihydro-1H-inden-2-yl)-6-(1-ethylpropyl)-2,5-dioxo-1-piperazinyl]-2-(2,6-dimethyl-3-pyridinyl)-N-methylethanamide] the figure was 0.501 to 1.58 nM.
Regarding `CCC(CC)[C@@H]1C(=O)N[C@H](C2Cc3ccccc3C2)C(=O)N1[C@@H](C(=O)N(C)C)c1ccc(C)nc1C` [Example 4, (2R)-2-[(3R,6R)-3-(2,3-Dihydro-1H-inden-2-yl)-6-(1-ethylpropyl)-2,5-dioxo-1-piperazinyl]-2-(2,6-dimethyl-3-pyridinyl)-N,N-dimethylethanamide], the Ki lay in the range of 0.501 to 1.58 nM.
Consider `CCC(CC)[C@@H]1C(=O)N[C@H](C2Cc3ccccc3C2)C(=O)N1[C@@H](C(=O)N1CCOCC1)c1ccc(C)nc1C` [Example 5, (3R,6R)-3-(2,3-Dihydro-1H-inden-2-yl)-1-[(1R)-1-(2,6-dimethyl-3-pyridinyl)-2-(4-morpholinyl)-2-oxoethyl]-6-(1-ethylpropyl)-2,5-piperazinedione], for which the Ki was at most 0.398 nM.
With `CCC(CC)[C@@H]1C(=O)N[C@H](C2Cc3ccccc3C2)C(=O)N1[C@@H](C(=O)NC)c1ccc2c(cnn2C)c1` [Example 6, (2R)-2-[(3R,6R)-3-(2,3-Dihydro-1H-inden-2-yl)-6-(1-ethylpropyl)-2,5-dioxo-1-piperazinyl]-N-methyl-2-(1-methyl-1H-indazol-5-yl)acetamide] the figure was at most 0.398 nM; with `CCC(CC)[C@@H]1C(=O)N[C@H](C2Cc3ccccc3C2)C(=O)N1[C@@H](C(=O)N(C)C)c1ccc2c(cnn2C)c1` [Example 7, (2R)-2-[(3R,6R)-3-(2,3-Dihydro-1H-inden-2-yl)-6-(1-ethylpropyl)-2,5-dioxo-1-piperazinyl]-N,N-dimethyl-2-(1-methyl-1H-indazol-5-yl)ethanamide], at most 0.398 nM; with `CCC(CC)[C@@H]1C(=O)N[C@H](C2Cc3ccccc3C2)C(=O)N1[C@@H](C(=O)N1CCOCC1)c1ccc2c(cnn2C)c1` [Example 8, (3R,6R)-3-(2,3-Dihydro-1H-inden-2-yl)-6-(1-ethylpropyl)-1-[(1R)-1-(1-methyl-1H-indazol-5-yl)-2-(4-morpholinyl)-2-oxoethyl]-2,5-piperazinedione], at most 0.398 nM.
With `CCC(CC)[C@@H]1C(=O)N[C@H](C2Cc3ccccc3C2)C(=O)N1[C@@H](C(=O)N1CCOCC1)c1coc(C)n1` [Example 9, (3R,6R)-3-(2,3-Dihydro-1H-inden-2-yl)-6-(1-ethylpropyl)-1-[(1R)-1-(2-methyl-1,3-oxazol-4-yl)-2-(4-morpholinyl)-2-oxoethyl]-2,5-piperazinedione] the figure was 0.501 to 1.58 nM.
